{"source": "ChEMBL document CHEMBL4130400", "about": "“Development of GLUT4-selective antagonists for multiple myeloma therapy” (Eur J Med Chem, 2017)", "key": {"[1]": {"target": "T1, Solute carrier family 2, facilitated glucose transporter member 8 (Homo sapiens, UniProt Q9NY64)", "T1 sequence (Q9NY64 whole entry)": "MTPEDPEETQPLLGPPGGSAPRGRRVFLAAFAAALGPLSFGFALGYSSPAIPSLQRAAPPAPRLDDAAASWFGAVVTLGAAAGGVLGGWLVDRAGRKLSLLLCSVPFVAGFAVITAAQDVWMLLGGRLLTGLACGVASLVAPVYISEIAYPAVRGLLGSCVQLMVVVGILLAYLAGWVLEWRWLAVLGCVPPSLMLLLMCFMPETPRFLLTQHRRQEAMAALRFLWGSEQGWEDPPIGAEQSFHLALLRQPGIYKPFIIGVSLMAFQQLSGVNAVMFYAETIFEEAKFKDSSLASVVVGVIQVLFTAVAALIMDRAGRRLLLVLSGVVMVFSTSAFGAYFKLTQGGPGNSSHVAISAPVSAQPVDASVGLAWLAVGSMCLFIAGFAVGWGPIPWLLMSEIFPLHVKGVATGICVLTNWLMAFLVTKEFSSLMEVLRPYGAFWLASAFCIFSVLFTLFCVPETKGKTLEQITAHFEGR", "assay": "Antagonist activity at human GLUT8 expressed in HEK293 cells transfected with GLUT1 shRNA assessed as inhibition of [3H]2-deoxy-D-glucose uptake preincubated for 5 mins followed by [3H]2-deoxy-D-glucose addition and measured after 6 mins", "assay_type": "cell-based"}, "[2]": {"target": "T2, Solute carrier family 2, facilitated glucose transporter member 1 (Homo sapiens, UniProt P11166)", "T2 sequence (P11166 whole entry)": "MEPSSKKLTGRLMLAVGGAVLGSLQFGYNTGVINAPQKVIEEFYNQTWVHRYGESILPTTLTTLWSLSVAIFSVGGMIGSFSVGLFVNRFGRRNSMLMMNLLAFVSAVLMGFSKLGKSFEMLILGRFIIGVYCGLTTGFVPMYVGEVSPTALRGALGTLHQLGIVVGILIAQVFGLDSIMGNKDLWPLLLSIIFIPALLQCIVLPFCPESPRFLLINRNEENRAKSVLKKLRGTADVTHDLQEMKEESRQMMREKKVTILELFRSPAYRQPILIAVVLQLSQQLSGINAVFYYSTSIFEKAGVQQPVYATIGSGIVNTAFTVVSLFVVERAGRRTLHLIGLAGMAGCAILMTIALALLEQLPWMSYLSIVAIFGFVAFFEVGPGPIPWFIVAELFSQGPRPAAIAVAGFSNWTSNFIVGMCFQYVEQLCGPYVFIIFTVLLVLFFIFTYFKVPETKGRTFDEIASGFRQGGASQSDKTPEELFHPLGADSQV", "assay": "Antagonist activity at human GLUT1 expressed in HEK293 cells transfected with GLUT1 shRNA assessed as inhibition of [3H]2-deoxy-D-glucose uptake preincubated for 5 mins followed by [3H]2-deoxy-D-glucose addition and measured after 6 mins", "assay_type": "cell-based"}, "[3]": {"target": "T3, Solute carrier family 2, facilitated glucose transporter member 4 (Homo sapiens, UniProt P14672)", "T3 sequence (P14672 whole entry)": "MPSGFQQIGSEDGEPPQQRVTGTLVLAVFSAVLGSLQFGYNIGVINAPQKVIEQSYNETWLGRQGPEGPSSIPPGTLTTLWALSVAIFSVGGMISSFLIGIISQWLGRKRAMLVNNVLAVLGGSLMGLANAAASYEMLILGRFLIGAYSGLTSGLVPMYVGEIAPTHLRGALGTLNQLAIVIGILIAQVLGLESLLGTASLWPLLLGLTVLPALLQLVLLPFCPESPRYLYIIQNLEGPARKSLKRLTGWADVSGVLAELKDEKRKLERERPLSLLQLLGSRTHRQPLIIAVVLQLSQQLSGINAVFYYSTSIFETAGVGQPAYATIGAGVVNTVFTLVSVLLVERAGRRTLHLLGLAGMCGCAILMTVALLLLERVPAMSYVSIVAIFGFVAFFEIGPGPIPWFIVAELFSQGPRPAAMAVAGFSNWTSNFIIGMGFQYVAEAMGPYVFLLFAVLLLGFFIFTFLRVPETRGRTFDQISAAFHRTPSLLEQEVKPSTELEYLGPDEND", "assay": "Antagonist activity at human GLUT4 expressed in HEK293 cells transfected with GLUT1 shRNA assessed as inhibition of [3H]2-deoxy-D-glucose uptake preincubated for 5 mins followed by [3H]2-deoxy-D-glucose addition and measured after 6 mins", "assay_type": "cell-based"}, "KMS-11": {"test_system": "KMS-11", "assay": "Antiproliferative activity against human KMS11 cells over-expressing GFP after 72 hrs by CellTiter-Glo assay", "assay_type": "functional, cell-based", "conditions": "KMS-11, 72 h"}, "[4]": {"target": "T4, Solute carrier family 2, facilitated glucose transporter member 4 (Rattus norvegicus, UniProt P19357)", "T4 sequence (P19357 whole entry)": "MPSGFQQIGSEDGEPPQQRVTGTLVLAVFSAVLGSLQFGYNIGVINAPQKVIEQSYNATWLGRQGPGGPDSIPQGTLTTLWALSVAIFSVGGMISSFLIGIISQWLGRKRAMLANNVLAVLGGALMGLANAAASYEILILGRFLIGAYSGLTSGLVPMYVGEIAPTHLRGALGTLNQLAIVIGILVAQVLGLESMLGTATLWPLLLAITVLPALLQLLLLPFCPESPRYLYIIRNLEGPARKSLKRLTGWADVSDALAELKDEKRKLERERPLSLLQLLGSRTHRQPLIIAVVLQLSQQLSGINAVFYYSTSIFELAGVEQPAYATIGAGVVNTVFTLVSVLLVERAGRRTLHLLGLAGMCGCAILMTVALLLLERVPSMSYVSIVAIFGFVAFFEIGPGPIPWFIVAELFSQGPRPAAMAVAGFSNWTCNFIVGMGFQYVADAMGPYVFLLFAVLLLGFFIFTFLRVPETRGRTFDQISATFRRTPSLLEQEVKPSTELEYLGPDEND", "assay": "Antagonist activity at GLUT4 in rat adipocytes assessed as reduction in insulin-stimulated [3H]2-deoxyglucose uptake preincubated for 1 min followed by [3H]2-deoxyglucose addition measured after 1 min by liquid scintillation counting analysis", "assay_type": "cell-based"}}, "note": "pIC50, pKi: −log10 of the molar value. Where a SMILES comes first, the peptide text is derived from it. The star is where a group is joined. Cbz = O=C(OCc1ccccc1)*"}
{"smiles": "Oc1cccc(CNCc2ccncc2)c1", "values": [{"measurement": "pIC50", "setting": "[1]", "result": "< 4.00"}, {"measurement": "pIC50", "setting": "[2]", "result": "< 4.00"}, {"measurement": "pIC50", "setting": "[3]", "result": 4.70}]}
{"smiles": "COc1ccc(C(=O)N(Cc2ccncc2)Cc2cccc(OCC3CCOCC3)c2)cc1", "values": [{"measurement": "pIC50", "setting": "KMS-11", "result": 4.75}]}
{"smiles": "COc1ccc(C(=O)N(Cc2ccncc2)Cc2cccc(OCCc3cccc(C(F)(F)F)c3)c2)cc1", "values": [{"measurement": "pIC50", "setting": "KMS-11", "result": 5.05}]}
{"smiles": "COc1ccc(C(=O)N(Cc2ccncc2)Cc2cccc(OCCc3ccccc3)c2)cc1", "values": [{"measurement": "pIC50", "setting": "KMS-11", "result": 4.77}]}
{"smiles": "COc1ccc(C(=O)N(Cc2ccncc2)Cc2cccc(OCc3ccc([N+](=O)[O-])cc3)c2)cc1", "values": [{"measurement": "pIC50", "setting": "KMS-11", "result": 4.81}]}
{"smiles": "COc1ccc(C(=O)N(Cc2ccncc2)Cc2cccc(OCC(=O)c3cccc(Br)c3)c2)cc1", "values": [{"measurement": "pIC50", "setting": "KMS-11", "result": 4.73}]}
{"smiles": "COc1ccc(C(=O)N(Cc2ccncc2)Cc2cccc(OCc3cccc(OC)c3)c2)cc1", "values": [{"measurement": "pIC50", "setting": "[3]", "result": 4.96}, {"measurement": "pIC50", "setting": "KMS-11", "result": 4.77}]}
{"smiles": "COc1ccc(C(=O)N(Cc2ccncc2)Cc2cccc(OCc3ccc(C(F)(F)F)cc3)c2)cc1", "values": [{"measurement": "pIC50", "setting": "KMS-11", "result": 4.84}]}
{"smiles": "CCOC(=O)[C@H](Cc1ccccc1)NC(=O)[C@H](Cc1ccccc1)NC(=O)[C@H](Cc1cnc[nH]1)NC(=O)OCc1ccccc1", "note": "(Cbz-His-Phe-Phe-OEt)", "values": [{"measurement": "pKi", "setting": "[4]", "result": 4.59}]}
